The values below come from patent US4340543A, “Sulfonium compounds” (Taiho Pharmaceutical Company Limited, priority 1980, dated 1982).

The subject of one data set is Meth-A cells. The data set can be described thus: Antitumor activity on a syngenic Meth-A tumor (tumor weight, i.v.). It counts as in vivo, male BALB/C mice. To be noted: 7 consecutive days, day 17. As for the experimental part:
(1) Antitumor activity on a syngenic Meth-A tumor.
Ten male BALB/C mice in each group, weighing 25-30 g, were subcutaneously inoculated with 2×10^4 Meth-A cells. A solution of the compound in physiological saline was injected intravenously at the dose shown in Table 4 below once a day for consecutive 7 days starting with the next day of the tumor inoculation. Seventeen days after the tumor inoculation, mice were sacrificed, and tumors were weighed.
Growth inhibition was assessed, tumor weight in the treated mice divided by tumor weight in the control mice.

Another data set relates to sarcoma 180 cells. The data set can be described thus: Antitumor activity on sarcoma 180 (tumor weight, i.v.). To be noted: 10 consecutive days, day 17. It counts as in vivo, male ICR mice. As to the method: (2) antitumor activity on sarcoma 180
Ten male ICR mice in each group, weighing 30-35 g, were subcutaneously inoculated with 5×10^5 sarcoma 180 cells. A solution of the compound in physiological saline was injected intravenously at the dose shown in Table 5 below once a day for 10 consecutive days starting with the next day of the tumor inoculation. Seventeen days after the tumor inoculation, mice were sacrificed, and tumors were weighed.

For data set [1], the system named is transplantable fibrosarcoma induced by 3-methylcholanthrene. The data set can be described thus: Antitumor activity on a 3-methylcholanthrene-induced transplantable tumor (tumor weight, i.v.). To be noted: every other day 5 times, day 21. In kind it is in vivo, male C57BL/6 mice. As for the experimental part:
(3) Antitumor activity on a 3-methylcholanthrene-induced transplantable tumor.
Ten male C57BL/6 mice in each group weighing 20-25 g were subcutaneously inoculated with 5×10^4 or 1×10^5 cells of transplantable fibrosarcoma, which was induced in C57BL/6 strain by 3-methylcholanthrene and maintained syngenetically in ascites form. A solution of the compound in physiological saline was injected intravenously at the dose shown in Table 6 below every other day 5 times, starting with the next day of the tumor inoculation. Twenty-one days after the tumor inoculation, mice were sacrificed and tumors were weighed.

In data set [2] the test system is spleen hemolytic plaque forming cells. The data set is described as follows: Effect on humoral response (hemolytic plaque forming cells, sheep red blood cells, i.p.). It counts as in vivo, male BALB/C mice. To be noted: for Increase (hemolytic plaque forming cells vs saline control) / Cell count/spleen (hemolytic plaque forming cells): day 0 to 4; for Cell count/spleen (hemolytic plaque forming cells): counted day 5. As to the method:
(4) Effect on humoral response
Ten male BALB/C mice in each group, weighing 25-30 g, were intravenously injected with 1×10^7 sheep red blood cells on day 0. A solution of the compound in physiological saline was injected intraperitoneally at the dose shown in Table 7 below from day 0 to day 4.
On day 5, spleen hemolytic plaque forming cells were counted by the technique of Jerne et al (Science, 140, 405, 1963) modified by Cunningham et al (Immunology, 14, 599, 1968).

Data set [3] relates to delayed hypersensitivity response. The data set can be described thus: Effect on a cell-mediated response (picryl chloride delayed hypersensitivity, ear swelling, oral). To be noted: for Increase relative to control group (ear swelling) / Increase of swelling (× 10^-4): 7 days; for Increase of swelling (× 10^-4): 24 hours after challenge; for effect on the delayed hypersensitivity response (in words): oral, Table 8 doses. It counts as in vivo, male BALB/C mice. As for the experimental part:
(5) Effect on a cell-mediated response
Ten male BALB/C mice in each group, weighing in 20-25 g, were used. Mice were immunized by applying the skin of the clipped abdomen with 0.1 ml of 7% picryl chloride in absolute alcohol on day 0, and challenge was with 0.02 ml of 1% picryl chloride in olive oil applied to the ear on day 7. The ear was measured again 24 hours later by a dial thickness gauge. A solution of the compound in water was orally administered at the dose shown in Table 8 below daily for seven consecutive days starting with day 1.

Data set [4] is described as follows: Acute toxicity test (up-down method, i.v.). To be noted: mouse, in vivo, iv, male ddy mice. As to the method:
Male ddy mice weighing 20 g were used. A solution of the compound in physiological saline was injected intravenously. The dose lethal to 50% of mice was determined by the up-down method.

Setting [5] is: 3 mg/kg/day i.v., cell count 1 × 10^5.

Regarding `C[S+](C)CC1CCCO1` (centres unmarked) [Compound 1, methylene(tetrahydro-2-furanyl)dimethylsulfonium p-toluenesulfonate], the “Inhibition (Meth-A tumor growth)” value in the data set with Meth-A cells (0.8 mg/kg/day i.v.) is recorded as 39.9%; in the data set on Meth-A cells (4.0 mg/kg/day i.v.), 63.9%. The “Inhibition (sarcoma 180 growth)” value with sarcoma 180 cells (0.8 mg/kg/day i.v.) came out at 66.4%. The “Inhibition (fibrosarcoma growth)” value in data set [1] (10 mg/kg/day i.v., cell count 5 × 10^4) was 71.5%. Besides, the “Increase (hemolytic plaque forming cells vs saline control)” value stood at 52.6% in data set [2] (2.5 mg/kg/day i.p.), 35.1% in data set [2] (10 mg/kg/day i.p.) and 85.8% in data set [2] (40 mg/kg/day i.p.). The “Cell count/spleen (hemolytic plaque forming cells)” value is given as 322 ± 75.2 in data set [2] (2.5 mg/kg/day i.p.), 285 ± 113.5 in data set [2] (10 mg/kg/day i.p.) and 392 ± 91.4 in data set [2] (40 mg/kg/day i.p.). The “increase in the number of hemolytic plaque forming cells (in words)” value in data set [2] (at the doses of 2.5 mg/kg and 40 mg/kg, i.p.) is on record as “significant increases”. In addition, the “Increase relative to control group (ear swelling)” value in data set [3] (20 mg/kg/day oral) was -3.4%; in data set [3] (100 mg/kg/day oral), 43.5%; in data set [3] (500 mg/kg/day oral), 11.0%. Also, the “Increase of swelling (× 10^-4)” value in data set [3] (20 mg/kg/day oral) is on record as 34.2 ± 6.0 × 10^-4; in data set [3] (100 mg/kg/day oral), 50.8 ± 13.4 × 10^-4; in data set [3] (500 mg/kg/day oral), 39.3 ± 9.8 × 10^-4. Further, the “effect on the delayed hypersensitivity response (in words)” value in data set [3] is “augment the delayed hypersensitivity response”. In addition, the LD50 (in general, the dose at which mortality reaches 50%) in data set [4] is 130 mg/kg.
Turning to `C[S+](C)CC1CCCCO1` (centres unmarked) [Compound 50, methylene(tetrahydro-2-pyranyl)dimethylsulfonium p-toluenesulfonate], in the data set on sarcoma 180 cells (3.0 mg/kg/day i.v.), the “Inhibition (sarcoma 180 growth)” value came to 73.3%. Besides, the LD50 in data set [4] was 135 mg/kg.
On to `C[S+](C)CCC1CCCO1` (centres unmarked) [Compound 29, ethylene(tetrahydro-2-furanyl)dimethylsulfonium p-toluenesulfonate], for which the results for the “Inhibition (Meth-A tumor growth)” value in the data set on Meth-A cells (0.4 mg/kg/day i.v.), in the data set on Meth-A cells (2.0 mg/kg/day i.v.) and in the data set on Meth-A cells (10.0 mg/kg/day i.v.) were 60.7%, 69.8% and 39.6%, respectively. The “Inhibition (fibrosarcoma growth)” value in data set [1] (setting [5]) is reported as 66.7%. The results for the “Increase relative to control group (ear swelling)” value in data set [3] (20 mg/kg/day oral), in data set [3] (100 mg/kg/day oral) and in data set [3] (500 mg/kg/day oral) were 26.0%, 35.3% and -11.6%, respectively. The “Increase of swelling (× 10^-4)” value in data set [3] (20 mg/kg/day oral) is 44.8 ± 9.5 × 10^-4; in data set [3] (100 mg/kg/day oral), 47.9 ± 13.2 × 10^-4; in data set [3] (500 mg/kg/day oral), 31.3 ± 13.5 × 10^-4. Further, the “effect on the delayed hypersensitivity response (in words)” value in data set [3] was “augment the delayed hypersensitivity response”. The compound also yielded an LD50 in data set [4] of 131 mg/kg.
Turning to `C[S+](C)CCC1CCCCO1` (centres unmarked) [Compound 58], the “Inhibition (Meth-A tumor growth)” value in the data set on Meth-A cells (2.0 mg/kg/day i.v.) is 49.2%. Further, in data set [4], the LD50 is 80 mg/kg.
Regarding `CCCC[S+](C)CC1CCCO1` (centres unmarked) [Compound 12], in data set [1] (setting [5]), the “Inhibition (fibrosarcoma growth)” value is reported as 44.3%. The compound further showed an LD50 in data set [4] of 90 mg/kg.
For `C[S+](C)CCCC1CCCO1` (centres unmarked) [Compound 46], in the data set on Meth-A cells (0.2 mg/kg/day i.v.), the “Inhibition (Meth-A tumor growth)” value came to 58.1%. Further, the LD50 in data set [4] came out at 13.2 mg/kg.
`C[S+](CCOC(=O)c1ccccc1)CC1CCCO1` (centres unmarked) [Compound 27]: the “Inhibition (sarcoma 180 growth)” value in the data set with sarcoma 180 cells (0.4 mg/kg/day i.v.) came out at 75.7%. Moreover, the LD50 in data set [4] is 94 mg/kg.
